# Laboratory results from patent US20250388605A1, “HETEROBIFUNCTIONAL COMPOUNDS AND METHODS OF TREATING DISEASE” (Halda Therapeutics OpCo, Inc., priority 2022, published 2025).
# Test system: VCaP cells
# Assay: Cellular growth inhibition assay for VCaP cells, CellTiter-Glo
# Assay type: cell-based, human
# Details: 72 hours
# Outline: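 GI50 values come from four-parameter curve fits of luminescence data normalized to a zero baseline. Compound, in medium with 0.5% DMSO, was added one day after plating and left for 72 h before CellTiter-Glo 2.0 addition.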
row,Compound,GI50
1,Cn1cc(-c2cc(C(C)(C)O)ccc2Oc2ccc(F)c(CCCN3CC4(C3)CN(c3ncc(C(=O)N[C@H]5C(C)(C)[C@H](Oc6ccc(C#N)c(Cl)c6)C5(C)C)cn3)C4)c2F)c2cc[nH]c2c1=O [Compound I-247],< 0.5 µM
2,CCS(=O)(=O)c1ccc(Oc2cccc(CCCC3CCN(c4ncc(C(=O)N[C@H]5C(C)(C)[C@H](Oc6ccc(C#N)c(Cl)c6)C5(C)C)cn4)CC3)c2)c(-c2cn(C)c(=O)c3[nH]ccc23)c1 [Compound I-248],0.5 to 1.5 µM
3,Cn1cc(-c2cc(C(C)(C)O)ccc2OC(CCCCN2CCN(c3ncc(C(=O)N[C@H]4C(C)(C)[C@H](Oc5ccc(C#N)c(Cl)c5)C4(C)C)cn3)CC2)C2CC2)c2cc[nH]c2c1=O (stereo partly shown) [Compound I-252],< 0.5 µM

# Test system: T47D cells
# Assay: Cellular Growth Inhibition Assay for T47D Cells (CellTiter-Glo)
# Assay type: cell-based, human
# Details: 72 hours
# Experimental: Exemplary compounds were tested for ability to inhibit the proliferation of T47D cells. T47D cells are a commercially available human breast cancer cell line.
# T47D cells were purchased from American Type Cell Culture (ATCC Cat #HTB-133) and then seeded on poly-D-lysine coated, black clear-bottom 384-well plates at 3000/well in 25 μL Dulbecco's Modified Eagle Medium (DMEM) supplemented with 10% w/w Fetal bovine serum (FBS), 0.2 units/mL recombinant human insulin (Gibco Cat #12585014), and 1% w/w Pen-Strep. Pen-Strep is a commercially available mixture of penicillin G and streptomycin, which is used in mammalian cell culture media to prevent bacterial contamination. Dulbecco's Modified Eagle Medium (DMEM) supplemented with 10% w/w fetal bovine serum (FBS), 0.2 units/mL recombinant human insulin, and 1% w/w Pen-Strep is herein referred to as Treatment Medium. Following seeding of cells in the plates, the plates were spun at 300×g for 30 seconds, then equilibrated to room temperature for 30 minutes, and then deposited in a humidified tissue culture incubator maintained at 37° C. with 5% CO2.
# At 24 hours after seeding of the cells, dilutions of test compound were prepared in DMSO and dissolved in Treatment Medium, to achieve a final DMSO concentration of 0.5% w/w, thereby providing the Test Compound Solution. A 25 μL aliquot of the Test Compound Solution was added to cells in the well plates. An equal volume of a solution containing DMSO and Treatment Medium was used as a negative control. Following treatment of cells with Test Compound Solution or said equal volume of a solution containing DMSO and Treatment Medium, the plates were spun at 300×g for 30 seconds, and then left in an incubator for 72 hours.
# At the end of the treatment duration, cell viability was quantified with CellTiter-Glo 2.0 reagent (Promega Cat #G9243). For this purpose, plates were equilibrated to room temperature for 30 minutes, and then 25 μL of CellTiter-Glo 2.0 reagent was added to cells in the plate wells. Plates were then agitated on a shaker for two minutes at 500 rpm and subsequently incubated at room temperature for 10 minutes. Following incubation, the plates were spun at 3000×g for 30 seconds, then sealed with an optical adhesive cover, and luminescence readings were measured with an EnVision Plate Reader (Perkin Elmer).
# Data was normalized using zero luminescence for baseline. A four-parameter non-linear regression curve fit was applied to dose-response data in GraphPad Prism data analysis software to determine the half-maximal growth inhibitory concentration (GI50) for each test compound.
row,Compound,GI50
1,Cn1cc(-c2cc(C(C)(C)O)ccc2Oc2ccc(F)c(CCCN3CC4(C3)CN(c3ncc(C(=O)N[C@H]5C(C)(C)[C@H](Oc6ccc(C#N)c(Cl)c6)C5(C)C)cn3)C4)c2F)c2cc[nH]c2c1=O [Compound I-247],< 0.5 µM
2,CCS(=O)(=O)c1ccc(Oc2cccc(CCCC3CCN(c4ncc(C(=O)N[C@H]5C(C)(C)[C@H](Oc6ccc(C#N)c(Cl)c6)C5(C)C)cn4)CC3)c2)c(-c2cn(C)c(=O)c3[nH]ccc23)c1 [Compound I-248],< 0.5 µM
3,Cn1cc(-c2cc(C(C)(C)O)ccc2OC(CCCCN2CCN(c3ncc(C(=O)N[C@H]4C(C)(C)[C@H](Oc5ccc(C#N)c(Cl)c5)C4(C)C)cn3)CC2)C2CC2)c2cc[nH]c2c1=O (stereo partly shown) [Compound I-252],0.5 to 1.5 µM
4,Cn1cc(-c2cc(C(C)(C)O)ccc2Oc2cccc(CC3CCN(c4ncc(C(=O)N[C@H]5C(C)(C)[C@H](Oc6ccc(C#N)c(Cl)c6)C5(C)C)cn4)CC3)c2)c2cc[nH]c2c1=O [Compound I-374],0.5 to 1.5 µM
5,Cn1cc(-c2cc(C(C)(C)O)ccc2Oc2cccc(N3CC(CC4CCN(c5ncc(C(=O)N[C@H]6C(C)(C)[C@H](Oc7ccc(C#N)c(Cl)c7)C6(C)C)cn5)CC4)C3)c2)c2cc[nH]c2c1=O [Compound I-376],< 0.5 µM
6,Cn1cc(-c2cc(C(C)(C)O)ccc2Oc2ccccc2)c2cc(C(=O)NC3CC(CC4CCN(c5ccc(C(=O)N[C@H]6C(C)(C)[C@H](Oc7ccc(C#N)c(Cl)c7)C6(C)C)nc5)CC4)C3)[nH]c2c1=O (stereo partly shown) [Compound I-378],> 3 µM
7,Cn1cc(-c2cc(C(C)(C)O)ccc2Oc2ccc(N3CC(C4CCN(c5cnc(C(=O)N[C@H]6C(C)(C)[C@H](Oc7ccc(C#N)c(Cl)c7)C6(C)C)cn5)CC4)C3)cc2)c2cc[nH]c2c1=O [Compound I-381],0.5 to 1.5 µM
8,Cn1cc(-c2cc(C(C)(C)O)ccc2Oc2ccc(N3CC(C4CCN(c5ccc(C(=O)N[C@H]6C(C)(C)[C@H](Oc7ccc(C#N)c(Cl)c7)C6(C)C)cn5)CC4)C3)cc2)c2cc[nH]c2c1=O [Compound I-382],< 0.5 µM
9,COc1cc(O[C@H]2C(C)(C)[C@H](NC(=O)c3cnc(N4CCC(CC5CN(c6ccc(Oc7ccc(C(C)(C)O)cc7-c7cn(C)c(=O)c8[nH]ccc78)cc6)C5)CC4)cn3)C2(C)C)ccc1C#N [Compound I-384],< 0.5 µM
10,COc1cc(O[C@H]2C(C)(C)[C@H](NC(=O)c3cnc(N4CCC(C5CN(c6ccc(Oc7ccc(C(C)(C)O)cc7-c7cn(C)c(=O)c8[nH]ccc78)cc6)C5)CC4)nc3)C2(C)C)ccc1C#N [Compound I-385],< 0.5 µM
11,Cn1cc(-c2ccccc2Oc2ccc(N3CC(C4CCN(c5ccc(C(=O)N[C@H]6C(C)(C)[C@H](Oc7ccc(C#N)c(Cl)c7)C6(C)C)nc5)CC4)C3)cc2)c2cc[nH]c2c1=O [Compound I-386],< 0.5 µM
12,Cn1cc(-c2cc(C(C)(C)O)ccc2Oc2ccc(N3CC(C4CCN(c5ccc(C(=O)N[C@H]6C(C)(C)[C@H](Oc7ccc(C#N)c(Cl)c7)C6(C)C)nc5)CC4)C3)cc2)c2cc[nH]c2c1=O [Compound I-388],< 0.5 µM
13,Cn1cc(-c2cc(C(C)(C)O)ccc2Oc2ccc(N3CC(C4CCN(c5ncc(C(=O)N[C@H]6C(C)(C)[C@H](Oc7ccc(C#N)c(C(F)(F)F)c7)C6(C)C)cn5)CC4)C3)cc2)c2cc[nH]c2c1=O [Compound I-389],< 0.5 µM
14,Cn1cc(-c2cc(C(C)(C)O)ccc2Oc2ccc(N3CC(C4CCN(c5ncc(C(=O)N[C@H]6C(C)(C)[C@H](Oc7ccc(C#N)c(F)c7)C6(C)C)cn5)CC4)C3)cc2)c2cc[nH]c2c1=O [Compound I-390],< 0.5 µM
15,COc1cc(Oc2ccc(C(C)(C)O)cc2-c2cn(C)c(=O)c3[nH]ccc23)ccc1N1CC(CC2CCN(c3cnc(C(=O)N[C@H]4C(C)(C)[C@H](Oc5ccc(C#N)c(Cl)c5)C4(C)C)cn3)CC2)C1 [Compound I-394],< 0.5 µM

# Same assay, conditions: Homo sapiens, 72 hours
row,Compound,GI50
1,Cn1cc(-c2cc(C(C)(C)O)ccc2Oc2ccc(CC3CCN(c4ccc(C(=O)N[C@H]5C(C)(C)[C@H](Oc6ccc(C#N)c(Cl)c6)C5(C)C)cn4)CC3)cc2)c2cc[nH]c2c1=O [Compound I-369],< 0.5 µM
2,Cn1cc(-c2cc(C(C)(C)O)ccc2Oc2ccc(CC3CCN(c4cnc(C(=O)N[C@H]5C(C)(C)[C@H](Oc6ccc(C#N)c(Cl)c6)C5(C)C)cn4)CC3)cc2)c2cc[nH]c2c1=O [Compound I-370],< 0.5 µM
3,Cn1cc(-c2ccccc2Oc2ccc(CC3CCN(c4cnc(C(=O)N[C@H]5C(C)(C)[C@H](Oc6ccc(C#N)c(Cl)c6)C5(C)C)cn4)CC3)cc2)c2cc[nH]c2c1=O [Compound I-371],< 0.5 µM
4,Cn1cc(-c2cc(C(C)(C)O)ccc2Oc2ccc(N3CC(C[C@@H]4[C@H]5CN(c6ncc(C(=O)N[C@H]7C(C)(C)[C@H](Oc8ccc(C#N)c(Cl)c8)C7(C)C)cn6)C[C@@H]45)C3)cc2)c2cc[nH]c2c1=O [Compound I-372],< 0.5 µM
5,Cn1cc(-c2cc(C(C)(C)O)ccc2Oc2ccc(CC3CC4(CCN(c5cnc(C(=O)N[C@H]6C(C)(C)[C@H](Oc7ccc(C#N)c(Cl)c7)C6(C)C)cn5)CC4)C3)cc2)c2cc[nH]c2c1=O [Compound I-375],> 3 µM
6,"Cn1cc(-c2cc(C(C)(C)O)ccc2Oc2ccccc2)c2cc(C(=O)NC3CC(CC4CCN(c5ccc(C(=O)NC6C(C)(C)C(Oc7ccc(C#N)c(Cl)c7)C6(C)C)nc5)CC4)C3)[nH]c2c1=O (stereo not shown) [Compound I-377, N-[3-[[1-[6-[[3-(3-chloro-4-cyano-phenoxy)-2,2,4,4-tetramethyl-cyclobutyl]carbamoyl]-3-pyridyl]-4-piperidyl]methyl]cyclobutyl]-4-[5-(1-hydroxy-1-methyl-ethyl)-2-phenoxy-phenyl]-6-methyl-7-oxo-1H-pyrrolo[2,3-c]pyridine-2-carboxamide]",> 3 µM
7,Cn1cc(-c2cc(C(C)(C)O)ccc2Oc2ccc(CC3CC4(CCN(c5ccc(C(=O)N[C@H]6C(C)(C)[C@H](Oc7ccc(C#N)c(Cl)c7)C6(C)C)nc5)CC4)C3)cc2)c2cc[nH]c2c1=O [Compound I-379],1.5 to 3 µM
8,Cn1cc(-c2cc(C(C)(C)O)ccc2Oc2ccc(CC3CC4(CCN(c5ccc(C(=O)N[C@H]6C(C)(C)[C@H](Oc7ccc(C#N)c(Cl)c7)C6(C)C)cn5)CC4)C3)cc2)c2cc[nH]c2c1=O [Compound I-380],0.5 to 1.5 µM
9,Cn1cc(-c2cc(C(C)(C)O)ccc2Oc2ccc(N3CC(CC4CCN(c5cnc(C(=O)N[C@H]6C(C)(C)[C@H](Oc7ccc(C#N)c(F)c7)C6(C)C)cn5)CC4)C3)cc2)c2cc[nH]c2c1=O [Compound I-383],< 0.5 µM
10,"Cn1cc(-c2cc(C(C)(C)O)ccc2Oc2ccccc2N2CC(CC3CCN(c4ncc(C(=O)NC5C(C)(C)C(Oc6ccc(C#N)c(Cl)c6)C5(C)C)cn4)CC3)C2)c2cc[nH]c2c1=O (stereo not shown) [Compound I-387, N-[3-(3-chloro-4-cyano-phenoxy)-2,2,4,4-tetramethyl-cyclobutyl]-2-[4-[[1-[2-[4-(1-hydroxy-1-methyl-ethyl)-2-(6-methyl-7-oxo-1H-pyrrolo[2,3-c]pyridin-4-yl)phenoxy]phenyl]azetidin-3-yl]methyl]-1-piperidyl]pyrimidine-5-carboxamide]",> 3 µM
11,"Cc1cc(Oc2ccc(C(C)(C)O)cc2-c2cn(C)c(=O)c3[nH]ccc23)cc(C)c1N1CC(CC2CCN(c3cnc(C(=O)N[C@H]4C(C)(C)[C@H](Oc5ccc(C#N)c(Cl)c5)C4(C)C)cn3)CC2)C1 [Compound I-391, N-[3-(3-chloro-4-cyano-phenoxy)-2,2,4,4-tetramethyl-cyclobutyl]-5-[4-[[1-[4-[4-(1-hydroxy-1-methyl-ethyl)-2-(6-methyl-7-oxo-1H-pyrrolo[2,3-c]pyridin-4-yl)phenoxy]-2,6-dimethyl-phenyl]azetidin-3-yl]methyl]-1-piperidyl]pyrazine-2-carboxamide]",< 0.5 µM
12,"COc1cc(N2CC(CC3CCN(c4cnc(C(=O)NC5C(C)(C)C(Oc6ccc(C#N)c(Cl)c6)C5(C)C)cn4)CC3)C2)ccc1Oc1ccc(C(C)(C)O)cc1-c1cn(C)c(=O)c2[nH]ccc12 (stereo not shown) [Compound I-392, N-[3-(3-chloro-4-cyano-phenoxy)-2,2,4,4-tetramethyl-cyclobutyl]-5-[4-[[1-[4-[4-(1-hydroxy-1-methyl-ethyl)-2-(6-methyl-7-oxo-1H-pyrrolo[2,3-c]pyridin-4-yl)phenoxy]-3-methoxy-phenyl]azetidin-3-yl]methyl]-1-piperidyl]pyrazine-2-carboxamide]",< 0.5 µM
13,Cn1cc(-c2cc(C(C)(C)O)ccc2Oc2ccc(N3CC(CC4CCN(c5cnc(C(=O)N[C@H]6C(C)(C)[C@H](Oc7ccc(C#N)c(Cl)c7)C6(C)C)cn5)CC4)C3)cc2Cl)c2cc[nH]c2c1=O [Compound I-393],< 0.5 µM
